The values below come from US7759313B2, “Induction method for cell differentiation” (Obschetstvo S Ogranichennoi Otvetstvennostiyu …, priority 2002, dated 2010).

Where two headings read alike, the source gives them in different places.

The format of series [1] is in vivo, mice. The source says: (§1) Two groups of mice are used.
The nature of series [2]: Total leukocyte number in peripheral blood under Cyclophosphamide.
Series [3] can be described thus: Peripheral blood leukocytes formula under Cyclophosphamide. It is filed as in vivo, mice. The following applies: day 3 post CPH.
From the text: as §1

As to `O=P1(N(CCCl)CCCl)NCCCO1` (centres unmarked) [CPH, Cyclophosphamide], the “Cellularity of bone marrow (number of cells)” value is 8.2 ± 1.65 millions in series [1] (CPH 200 mg/kg (Dicarbamine group: 0.5 mg/kg 5 days prior and 5 days after), day 3); 13.05 ± 2.75 millions in series [1] (day 5 after CPH); 25.22 ± 2.75 millions in series [1] (day 7 after CPH); 27.9 ± 2.75 millions in series [1] (day 10 after CPH); 30.15 ± 6.6 millions in series [1] (day 13 after CPH); 25.0 ± 3.16 millions in series [1] (day 17 after CPH). Moreover, the “Cellularity of bone marrow (number of cells)” value in series [1] (day 21 after CPH) amounted to 26.55 ± 4.53 millions. The Total leukocyte number is 4.38 ± 0.77 thousand in mm^3 in series [2] (CPH 200 mg/kg, day 5); 10.50 ± 3.02 thousand in mm^3 in series [2] (CPH 200 mg/kg, day 7); 6.44 ± 0.60 thousand in mm^3 in series [2] (CPH 200 mg/kg, day 10); 12.20 ± 3.02 thousand in mm^3 in series [2] (CPH 200 mg/kg, day 13); 12.20 ± 1.80 thousand in mm^3 in series [2] (CPH 200 mg/kg, day 17); 11.86 ± 1.32 thousand in mm^3 in series [2] (CPH 200 mg/kg, day 21). The Total leukocyte number in series [2] (single CPH 200 mg/kg (Dicarbamine group: 0.5 mg/kg daily 5 days before and 5 days after), day 3 post CPH) is listed as 1.06 ± 0.44 thousand in mm^3. Further, the Myelocytes is given as 0% in series [3] (CPH 200 mg/kg (Dicarbamine group: 0.5 mg/kg 5 days prior and 5 days after)); 0 in mm^3 in series [3]. In series [3], the Monocytes was 4.649%.
